Data published in ChEMBL document CHEMBL5360558, “Molecular design, synthesis and anticancer activity of new thiopyrano[2,3-d]thiazoles based on 5-hydroxy-1,4-naphthoquinone (juglone)” (Eur J Med Chem, 2023).
Active and inactive are the calls of the source. The calls are words filed in the database; no cut-off is given here.

Columns and labels:
[1] = Cytotoxicity against mouse NIH3T3 cells assessed as cell growth inhibition incubated for 72 hrs by MTT assay; assay type: toxicity, cell-based
Malme-3M = assay: Anticancer activity against human Malme-3M cells assessed as cell growth at 10 uM incubated for 48 hrs by sulforhodamine B assay; assay type: functional; conditions: read-out: Activity
M14 = assay: Growth inhibition against human M14 cells assessed as total growth inhibitory concentration incubated for 48 hrs by sulforhodamine B spectrophotometric assay; assay type: functional
[2] = Cytotoxicity against human HCT116-p53-null cells assessed as cell growth inhibition incubated for 72 hrs by MTT assay; assay type: functional, cell-based
[3] = Acute toxicity in C57BL/6 mouse assessed as ratio of liver weight to body weight at 20 mg/kg,ip administration and observed after 22 days (reference value: 5.22 +/- 0.42); assay type: organism-based; conditions: in vivo, 528 h, time 22 day
CCRF-CEM [4] = assay: Induction of cell cycle arrest in human CCRF-CEM cells assessed as accumulation of cells at G0/G1 phase at 4.14 uM incubated for 24 hrs by propidium iodide staining based flow cytometry analysis (reference value: 38.68 +/- 0.75%); assay type: functional
SK-MEL-5 [5] = assay: Growth inhibition against human SK-MEL-5 cells assessed as total growth inhibitory concentration incubated for 48 hrs by sulforhodamine B spectrophotometric assay; assay type: functional
TK-10 = assay: Growth inhibition of human TK-10 cells incubated for 48 hrs by sulforhodamine B spectrophotometric assay; assay type: functional
SW-620 [6] = assay: Growth inhibition against human SW620 cells assessed as total growth inhibitory concentration incubated for 48 hrs by sulforhodamine B spectrophotometric assay; assay type: functional
MOLT-4 = assay: Growth inhibition of human MOLT-4 cells incubated for 48 hrs by sulforhodamine B spectrophotometric assay; assay type: functional
[7] = Acute toxicity in C57BL/6 mouse assessed as ratio of lung weight to body weight at 20 mg/kg,ip administration and observed after 22 days (reference value: 0.8 +/- 0.09); assay type: organism-based; conditions: in vivo, 528 h, time 22 day
HCT-116 = assay: Growth inhibition of human HCT-116 cells incubated for 48 hrs by sulforhodamine B spectrophotometric assay; assay type: functional
LOX IMVI = assay: Growth inhibition against human LOX IMVI cells assessed as total growth inhibitory concentration incubated for 48 hrs by sulforhodamine B spectrophotometric assay; assay type: functional
DU-145 [8] = assay: Growth inhibition against human DU-145 cells assessed as total growth inhibitory concentration incubated for 48 hrs by sulforhodamine B spectrophotometric assay; assay type: functional
HCT-15 = assay: Growth inhibition against human HCT-15 cells assessed as total growth inhibitory concentration incubated for 48 hrs by sulforhodamine B spectrophotometric assay; assay type: functional
KM12 = assay: Growth inhibition against human KM12 cells assessed as lethal concentration incubated for 48 hrs by sulforhodamine B spectrophotometric assay; assay type: functional; conditions: read-out: LC50 (the source's name)
SF-539 = assay: Growth inhibition of human SF-539 cells incubated for 48 hrs by sulforhodamine B spectrophotometric assay; assay type: functional
786-0 = assay: Growth inhibition against human 786-0 cells assessed as total growth inhibitory concentration incubated for 48 hrs by sulforhodamine B spectrophotometric assay; assay type: functional
SN12C = assay: Growth inhibition of human SN12C cells incubated for 48 hrs by sulforhodamine B spectrophotometric assay; assay type: functional
DU-145 [9] = assay: Growth inhibition of human DU-145 cells incubated for 48 hrs by sulforhodamine B spectrophotometric assay; assay type: functional
[10] = GSH reactivity of compound at pH 7.4 phosphate buffer assessed as GSH-adduct formation at 1 mM incubated for 1 hr in presence of sodium borohydride by spectrophotometric analysis; assay type: physicochemical; conditions: pH 7.4, 1 h, 1000 µM
NCI-H460 = assay: Growth inhibition against human NCI-H460 cells assessed as total growth inhibitory concentration incubated for 48 hrs by sulforhodamine B spectrophotometric assay; assay type: functional
MDA-MB-435 = assay: Growth inhibition against human MDA-MB-435 cells assessed as total growth inhibitory concentration incubated for 48 hrs by sulforhodamine B spectrophotometric assay; assay type: functional
SNB-19 = assay: Growth inhibition against human SNB-19 cells assessed as lethal concentration incubated for 48 hrs by sulforhodamine B spectrophotometric assay; assay type: functional; conditions: read-out: LC50 (the source's name)
MCF7 = assay: Growth inhibition against human MCF7 cells assessed as total growth inhibitory concentration incubated for 48 hrs by sulforhodamine B spectrophotometric assay; assay type: functional
SW-620 [11] = assay: Growth inhibition of human SW620 cells incubated for 48 hrs by sulforhodamine B spectrophotometric assay; assay type: functional
RXF 393 = assay: Growth inhibition of human RXF 393 cells incubated for 48 hrs by sulforhodamine B spectrophotometric assay; assay type: functional
HL-60 = assay: Growth inhibition of human HL-60 cells incubated for 48 hrs by sulforhodamine B spectrophotometric assay; assay type: functional
SK-MEL-2 = assay: Growth inhibition against human SK-MEL-2 cells assessed as lethal concentration incubated for 48 hrs by sulforhodamine B spectrophotometric assay; assay type: functional; conditions: read-out: LC50 (the source's name)
MDA-MB-231 [12] = assay: Growth inhibition against human MDA-MB-231 cells assessed as lethal concentration incubated for 48 hrs by sulforhodamine B spectrophotometric assay; assay type: functional; conditions: read-out: LC50 (the source's name)
Hs-578T = assay: Growth inhibition of human Hs-578T cells incubated for 48 hrs by sulforhodamine B spectrophotometric assay; assay type: functional
Jurkat [13] = assay: Induction of apoptosis in human Jurkat cells assessed as DNA damage by DNA laddering assay; assay type: functional, cell-based
[14] = Antileukemic activity against human CLL cell assessed as cell growth inhibition incubated for 72 hrs in presence of BST by MTT assay; assay type: functional, cell-based
SK-MEL-28 = assay: Growth inhibition against human SK-MEL-28 cells assessed as total growth inhibitory concentration incubated for 48 hrs by sulforhodamine B spectrophotometric assay; assay type: functional
U-251 = assay: Growth inhibition of human U-251 cells incubated for 48 hrs by sulforhodamine B spectrophotometric assay; assay type: functional
MDA-MB-231 [15] = assay: Induction of apoptosis in human MDA-MB-231 cells assessed as increase in caspase-9 level at 10 uM incubated for 24 hrs by flow cytometry analysis; assay type: functional
CCRF-CEM [16] = assay: Induction of cell cycle arrest in human CCRF-CEM cells assessed as accumulation of cells at higher G2/M phase at 4.14 uM incubated for 24 hrs by propidium iodide staining based flow cytometry analysis (reference value: 10.09 +/- 0.14%); assay type: functional
MDA-MB-231 [17] = assay: Induction of apoptosis in human MDA-MB-231 cells assessed as increase in caspase 3/7 activity at 10 uM incubated for 24 hrs by flow cytometry analysis; assay type: functional
BT-549 = assay: Growth inhibition against human BT-549 cells assessed as lethal concentration incubated for 48 hrs by sulforhodamine B spectrophotometric assay; assay type: functional; conditions: read-out: LC50 (the source's name)
A549 = assay: Growth inhibition of human A549 cells incubated for 48 hrs by sulforhodamine B spectrophotometric assay; assay type: functional
ACHN = assay: Growth inhibition against human ACHN cells assessed as lethal concentration incubated for 48 hrs by sulforhodamine B spectrophotometric assay; assay type: functional; conditions: read-out: LC50 (the source's name)
SK-MEL-5 [18] = assay: Anticancer activity against human SK-MEL-5 cells assessed as cell growth at 10 uM incubated for 48 hrs by sulforhodamine B assay; assay type: functional; conditions: read-out: Activity
Jurkat [19] = assay: Induction of apoptosis in human Jurkat cells assessed as necrotic cells at 25 uM by DNA laddering assay; assay type: functional, cell-based
MDA-MB-231 [20] = assay: Growth inhibition of human MDA-MB-231 cells incubated for 48 hrs by sulforhodamine B spectrophotometric assay; assay type: functional

Question: For `O=C1C2=C(C(=O)c3c(O)cccc31)C(c1ccco1)c1sc(=O)[nH]c1S2` (centres undefined), which IC50 at 72 h [1] is on record?
Answer: The IC50 at 72 h was 6.07 µM.

Question: What about the growth at 10 µM (Malme-3M) of the same molecule?
Answer: Its growth at 10 µM is -92.3%.

Question: What about the TGI (M14) of the same molecule?
Answer: The TGI was 2.37 µM.

Question: What about the IC50 [2] of the same molecule?
Answer: The IC50 was 2.37 µM.

Question: What about the Ratio [3] of the same molecule?
Answer: Its Ratio is 4.54.

Question: What about the Activity (CCRF-CEM [4]) of the same molecule?
Answer: Its Activity is 34.34%.

Question: And the TGI (SK-MEL-5 [5])?
Answer: The TGI was 3 µM.

Question: And the GI50 (TK-10)?
Answer: Its GI50 is 12.3 µM.

Question: And the TGI (SW-620 [6])?
Answer: Its TGI is 10.5 µM.

Question: What about the GI50 (MOLT-4) of the same molecule?
Answer: The GI50 was 2.71 µM.

Question: And the Ratio [7]?
Answer: Its Ratio is 0.82.

Question: What about the GI50 (HCT-116) of the same molecule?
Answer: Its GI50 is 2.37 µM.

Question: What about the TGI (LOX IMVI) of the same molecule?
Answer: Its TGI is 7.55 µM.

Question: What about the TGI (DU-145 [8]) of the same molecule?
Answer: The TGI was 3.01 µM.

Question: What about the TGI (HCT-15) of the same molecule?
Answer: Its TGI is 3.88 µM.

Question: What about the CC50 (KM12) of the same molecule?
Answer: The CC50 was > 100 µM.

Question: And the GI50 (SF-539)?
Answer: The GI50 was 1.93 µM.

Question: And the TGI (786-0)?
Answer: Its TGI is 24.2 µM.

Question: And the GI50 (SN12C)?
Answer: The GI50 was 1.74 µM.

Question: And the GI50 (DU-145 [9])?
Answer: Its GI50 is 1.55 µM.

Question: What about the Activity [10] of the same molecule?
Answer: Its Activity is “Active”.

Question: And the TGI (NCI-H460)?
Answer: Its TGI is 3.48 µM.

Question: And the TGI (MDA-MB-435)?
Answer: The TGI was 2.47 µM.

Question: What about the CC50 (SNB-19) of the same molecule?
Answer: The CC50 was 26.1 µM.

Question: What about the TGI (MCF7) of the same molecule?
Answer: The TGI was 3.34 µM.

Question: What about the GI50 (SW-620 [11]) of the same molecule?
Answer: The GI50 was 3.28 µM.

Question: What about the GI50 (RXF 393) of the same molecule?
Answer: Its GI50 is 2.02 µM.

Question: And the GI50 (HL-60)?
Answer: The GI50 was 1.82 µM.

Question: And the CC50 (SK-MEL-2)?
Answer: Its CC50 is 52.9 µM.

Question: What about the CC50 (MDA-MB-231 [12]) of the same molecule?
Answer: Its CC50 is > 100 µM.

Question: And the GI50 (Hs-578T)?
Answer: Its GI50 is 2.2 µM.

Question: What about the Activity (Jurkat [13]) of the same molecule?
Answer: Its Activity is “Active”.

Question: What about the IC50 [14] of the same molecule?
Answer: Its IC50 is 8.24 µM.

Question: And the TGI (SK-MEL-28)?
Answer: The TGI was 3.72 µM.

Question: And the GI50 (U-251)?
Answer: Its GI50 is 3.07 µM.

Question: And the Activity (MDA-MB-231 [15])?
Answer: The Activity was 32.6%.

Question: And the Activity (CCRF-CEM [16])?
Answer: The Activity was 12.23%.

Question: And the Activity (MDA-MB-231 [17])?
Answer: Its Activity is 20.6%.

Question: And the CC50 (BT-549)?
Answer: The CC50 was 6.22 µM.

Question: What about the GI50 (A549) of the same molecule?
Answer: The GI50 was 1.78 µM.

Question: And the CC50 (ACHN)?
Answer: Its CC50 is 40.1 µM.

Question: What about the growth at 10 µM (SK-MEL-5 [18]) of the same molecule?
Answer: Its growth at 10 µM is -93.4%.

Question: And the Activity (Jurkat [19])?
Answer: The Activity was “Active”.

Question: What about the GI50 (MDA-MB-231 [20]) of the same molecule?
Answer: The GI50 was 2.73 µM.
